In patent publication US11884670B1, “Pyrido[4′,3′:4,5]pyrrolo[3,2-c][2,7]naphthyridin-10-one compounds as CK2 inhibitors” (KING FAISAL UNIVERSITY, priority 2023, dated 2024):

How the values were obtained:
PC3 (prostate) = experiment: In vitro cytotoxic activity (MTT) assay, PC3; format: cell-based; conditions: Homo sapiens, Prostate cell; PC3 (prostate) cells, exposed for 96 hours; read-out: IC50, concentration eliciting 50% inhibition of cell proliferation
Method: (§1) Compounds 1-16 were screened for their in vitro cytotoxic activity utilizing a 3-(4,5-dimethyl-thiazol-2-yl)-2,5-diphenyltetrazolium bromide (MTT) assay against selected cancer human cell lines consisting of PC3 (prostate), HCT116 (colon), A375 (melanoma), H1299 (lung), MIAPaCa-2 (pancreas), HL60 (leukemia), MCF7 (breast), MDA-MB-231 (breast) (T. Mosmann, J. Immunol. Meth., 1983, 65, 55-63). The cells were cultured at 37° C. in RMPI1640 medium supplemented with 10% fetal bovine serum, 50 IU/mL penicillin, and 50 μg/mL streptomycin in a 5% CO2 incubator. All cells were sub-cultured 3 times/week by trypsinisation. Viable cells were seeded and allowed to adhere for 12 h before a test drug was added in 96-well plates at an initial density of 1.0×10^5 cells/mL. Tumour cell lines were separately exposed to various concentrations of the tested compounds followed by incubation at a temperature of 37° C. during 96 h inside a medium of fresh RMPI 1640. Cells were subsequently incubated at 37° C. using MTT at 0.5 mg/mL during 4 h. After removal of supernatant, formazan crystals were dissolved in isopropanol and the optical density was measured at 570 nm. CX-4945 was used as a positive control.

MDA-MB-231 (breast) = experiment: In vitro cytotoxic activity (MTT) assay, MDA-MB-231; format: cell-based; conditions: Homo sapiens; MDA-MB-231 (breast) cells, exposed for 96 hours; read-out: IC50, concentration eliciting 50% inhibition of cell proliferation
Method: as §1

[1] = target: T1, recombinant human CK2 (RRββ-holoenzyme) (Homo sapiens, UniProt P68400); experiment: CK2 kinase assay (33P-ATP, substrate peptide RRRDDDSDDD); format: biochemical; conditions: final ATP concentration 15 μM, 10 min at 30° C.; read-out: protein kinase CK2 IC50
T1 construct: purchased Millipore
T1 sequence (P68400 whole entry): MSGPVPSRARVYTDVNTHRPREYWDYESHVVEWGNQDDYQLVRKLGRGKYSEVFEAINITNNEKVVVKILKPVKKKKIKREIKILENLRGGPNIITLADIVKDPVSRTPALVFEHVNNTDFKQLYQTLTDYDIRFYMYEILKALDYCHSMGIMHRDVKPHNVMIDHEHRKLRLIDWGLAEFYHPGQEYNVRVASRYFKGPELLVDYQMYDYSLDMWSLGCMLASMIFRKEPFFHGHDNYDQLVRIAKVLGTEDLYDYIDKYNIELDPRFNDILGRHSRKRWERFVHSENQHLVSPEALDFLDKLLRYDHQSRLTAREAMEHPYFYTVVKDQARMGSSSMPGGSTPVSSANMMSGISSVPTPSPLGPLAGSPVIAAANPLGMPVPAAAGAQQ
T1 sequence (P67870 whole entry partner): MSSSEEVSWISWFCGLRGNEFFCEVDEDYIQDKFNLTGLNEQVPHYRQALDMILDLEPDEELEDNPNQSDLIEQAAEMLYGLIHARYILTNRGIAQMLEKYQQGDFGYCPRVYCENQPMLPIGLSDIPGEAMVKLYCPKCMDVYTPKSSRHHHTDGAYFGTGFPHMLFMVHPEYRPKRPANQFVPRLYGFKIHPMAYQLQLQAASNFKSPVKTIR
Method: CK2 Kinase Assay was conducted using the protocol as described in Pierre F. et al; J. Med. Chem. 2011, 54, 635-654. The tested compounds in aqueous solution were added at a volume of 10 μL to a reaction mixture comprising 10 μL of assay dilution buffer (ADB; 20 mM MOPS, pH 7.2, 25 mM β-glycerol phosphate, 5 mM EGTA, 1 mM sodium orthovanadate, and 1 mM dithiothreitol), 10 μL of substrate peptide (RRRDDDSDDD, dissolved in ADB at a concentration of 1 mM), 10 μL of recombinant human CK2 (RRββ-holoenzyme, 25 ng dissolved in ADB; Millipore). Reactions were initiated by the addition of 10 μL of ATP solution (90% 75 mMMgCl2, 75 μM ATP (final ATP concentration: 15 μM) dissolved in ADB; 10% [γ-33P] ATP (stock 1 mCi/100 μL; 3000 Ci/mmol (Perkin-Elmer) and maintained for 10 min at 30° C. The reactions were quenched with 100 μL of 0.75% phosphoric acid and then transferred to and filtered through a phosphor cellulose filter plate (Millipore). After washing each well five times with 0.75% phosphoric acid, the plate was dried under vacuum for 5 min and, following the addition of 15 μL of scintillation fluid to each well, the residual radioactivity was measured using a Wallac […] counter. The IC50 values were derived from eight concentrations of test inhibitors.

MIAPaCa-2 (pancreas) = experiment: In vitro cytotoxic activity (MTT) assay, MIAPaCa-2; format: cell-based; conditions: Homo sapiens, MIA PaCa-2; MIAPaCa-2 (pancreas) cells, exposed for 96 hours; read-out: IC50, concentration eliciting 50% inhibition of cell proliferation
Method: as §1

HCT116 (colon) = experiment: In vitro cytotoxic activity (MTT) assay, HCT116; format: cell-based; conditions: Homo sapiens, HCT-116; HCT116 (colon) cells, exposed for 96 hours; read-out: IC50, concentration eliciting 50% inhibition of cell proliferation
Method: as §1

A375 (melanoma) = experiment: In vitro cytotoxic activity (MTT) assay, A375; format: cell-based; conditions: Homo sapiens, A-375; A375 (melanoma) cells, exposed for 96 hours; read-out: IC50, concentration eliciting 50% inhibition of cell proliferation
Method: as §1

HL60 (leukemia) = experiment: In vitro cytotoxic activity (MTT) assay, HL60; format: cell-based; conditions: Homo sapiens, HL-60; HL60 (leukemia) cells, exposed for 96 hours; read-out: IC50, concentration eliciting 50% inhibition of cell proliferation
Method: as §1

MCF7 (breast) = experiment: In vitro cytotoxic activity (MTT) assay, MCF7; format: cell-based; conditions: Homo sapiens; MCF7 (breast) cells, exposed for 96 hours; read-out: IC50, concentration eliciting 50% inhibition of cell proliferation
Method: as §1

H1299 (lung) = experiment: In vitro cytotoxic activity (MTT) assay, H1299; format: cell-based; conditions: Homo sapiens, NCI-H1299; H1299 (lung) cells, exposed for 96 hours; read-out: IC50, concentration eliciting 50% inhibition of cell proliferation
Method: as §1

For O=c1[nH]ccc2c1[nH]c1c3ccncc3c(Nc3cccc(Cl)c3)nc21 [Compound 1, 5-((3-chlorophenyl)amino)-9,11-dihydro-10H-pyrido[4′,3′:4,5]pyrrolo[3,2-c][2,7]naphthyridin-10-one], the IC50 (PC3 (prostate)) was 2.1 µM, the IC50 (MDA-MB-231 (breast)) was 4.8 µM and the IC50 [1] was 0.038 µM. It also gave an IC50 (MIAPaCa-2 (pancreas)) of 1.7 µM, an IC50 (HCT116 (colon)) of 1.9 µM and an IC50 (A375 (melanoma)) of 3.3 µM. The IC50 (HL60 (leukemia)) was 3.4 µM, the IC50 (MCF7 (breast)) was 6.2 µM and the IC50 (H1299 (lung)) was 1 µM.
